Several values for one entry are separate records, joined by “and”; a condition that tells them apart may be missing. Equal values may be shown once. No end group written: not given here.
Key:
MCAO model rats = experiment: Cerebral infarction volume (TTC staining) in MCAO model rats; conditions: rat, in vivo
Experimental: The focal cerebral ischemia-reperfusion model was prepared according to the reversible middle cerebral artery occlusion (MCAO) suture method proposed by Longa with modifications in view of the anatomical structure of the rat brain. The rats were anesthetized by intraperitoneal administration of 10% chloral hydrate at a dose of […]. After anesthetization, a cut was created at the cervical midline, and the common carotid artery (CCA), external carotid artery (ECA) and pterygopalatine artery were exposed. The head portion (0.5 cm) of a monofilament nylon fishing line (0.26 mm) was coated with paraffin and a mark was made at 20 mm. All rats were inserted through the right CCA incision, and the pterygopalatine artery was temporarily clamped to prevent mis-insertion. The length of the occlusion line was about 18-20 mm from the bifurcation of CCA depending on the animal's weight, thereby occluding middle cerebral artery on the right side. The skin was then sewed, and the tail end of the occlusion line was partially fixed to the skin. After a period of ischemia for 2 hours, the occlusion line was carefully pulled out to form a reperfusion. The procedure steps for the sham control were the same as the surgery group, except for insertion of a nylon fishing line. The body temperature was maintained at 37±0.5° C. during the ischemia period and 2 h after reperfusion.
The used animals were male adult SD rats (Vittalia) of SPF grade with body weight of 220-250 g.
The experimental animals were divided into the negative control group, sham group, model group, positive drug Enbipu group, NA-1 group, YE-NA-1 group and P6 group. A saline solution, positive drug Enbipu, NA-1 (10 mg/kg), YE-NA-1 (10 mg/kg) and P6 (10 mg/kg, 3 mg/kg and 1 mg/kg) were respectively administered to individual group of rats via tail vein injection at 1 hour after ischemia. No drugs were administered to the normal group and the sham group.
The rats were sacrificed by decapitation after scoring. The brain tissues were quickly removed and placed in a refrigerator at −20° C. After 10 minutes, the tissues were placed in a room temperature environment. The brains were placed in a rat brain section mold. After the olfactory bulb, cerebellum and low brain stem were removed, the brains were coronally cut five times at 2 mm thickness as shown in the profile to obtain six continuous raw coronal slices. Then, the brain sections were quickly placed in a 5 ml solution containing 2% TTC, and incubated at 37° C. for 30 minutes in the dark, during which the brain sections were flipped once every 5 minutes. With the TTC staining, the normal tissue would be rose red, and the infarcted tissue would be unstained and retained white. Each group of brain sections was arranged neatly, and photographed. The photos were processed by an image analysis system software and statistically analyzed. The infarction area of each brain section was calculated, and multiplied by the thickness of each brain section (2 mm). The products of the infarction area of individual brain section multiplied by the thickness were summed to obtain the cerebral infarction volume for each animal. The volumes were expressed as percentages accounting for the cerebral hemisphere to eliminate the effects of cerebral edema.

PDZ1/2 domain = experiment: SPR, Biacore 3000, PDZ1/2 amine-coupled on CM5 chip, peptide as analyte, 1:1 model

Molecule: YGRKKRRQRRRKLSSIESDV [NA-1, reference compound]
- Mean of infarction volume percentage (MCAO model rats): 38.56%

Molecule: YGRKKRRQRRRYEKLSSIESDV [YE-NA-1, reference compound]
- Mean of infarction volume percentage (MCAO model rats): 33.96%

Molecule: YGRKKRRQRRRYEKLTTLDTGGV [P6]
- Mean of infarction volume percentage (MCAO model rats): 26.71% and 37.89% and 43.75%
- Mean of infarction volume percentage (MCAO model rats; 1 mg/kg): 41.56%
- Reduction of infarction volume percentage vs model group (MCAO model rats; 1 mg/kg): 9.57%
- Mean of infarction volume percentage (MCAO model rats; 3 mg/kg): 38.34%
- Reduction of infarction volume percentage vs model group (MCAO model rats; 3 mg/kg): 16.58%
- effect on cerebral infarction volume (MCAO model rats; 3 mg/kg): desirably reduced the cerebral infarction volume
- Mean of infarction volume percentage (MCAO model rats; 10 mg/kg): 19.54%
- Reduction of infarction volume percentage vs model group (MCAO model rats; 10 mg/kg): 57.48%
- reduction of cerebral infarction volume (MCAO model rats; 10 mg/kg): about 50%

Molecule: control chimeric peptide NA-1
- Kd (PDZ1/2 domain): 75.3 nM

B1: chimeric peptide YE-NA-1 (peptide)
peptide: YGRKKRRQRRRYEKLSSIESDV
- Kd (PDZ1/2 domain): 54.4 nM

Source: patent US20190134150A1, “THERAPEUTIC METHODS FOR EXCITATORY NEUROTOXICITY-RELATED INJURIES” (Biocells (Beijing) Biotech Co., Ltd., priority 2016, published 2019)
